Measured values published in US11807627B2, “Morphic forms of complement factor D inhibitors” (priority 2018, dated 2023).
Converted amounts (≈) assume the structure as drawn.

What was measured:
Thermal stability by TGA = format: physicochemical; conditions: to 150° C.
Method: TG analyses were performed using a TA Instruments Q5000 IR thermogravimetric analyzer. Temperature calibration was performed using nickel and Alumel™. Each sample was placed in an aluminum pan. The sample was hermetically sealed, the lid pierced, then inserted into the TG furnace. The furnace was heated under nitrogen. The method code on the thermogram is an abbreviation for the start and end temperature as well as the heating rate; e.g., […] means “from 25° C. to 350° C., at 10° C./min”.

[1] = Solid state stress testing (temperature, humidity, storage, photostability); format: physicochemical
[2] = Solution stress testing (acid, base, oxidative degradation); format: physicochemical
[3] = pH experiments and SIF/SGF/FaSSIF/FeSSIF solubility (Examples 3 and 4); format: physicochemical
[4] = Caco2 permeability and efflux ratio; format: in vitro ADME; conditions: human, Caco-2; Caco2; read-out: Efflux ratio (B-A/A-B)
Caco2 = Caco2 permeability and efflux ratio; format: in vitro ADME; conditions: A-B
[5] = Dose number and BCS classification; format: physicochemical
[6] = ICH stability study of amorphous Compound 2; format: physicochemical
Description: Compound 2 stored in double LDPE bag with silica gel in aluminum receptacle with lid had the following stability characteristics described in Table 9.

[7] = Hygroscopicity / dynamic vapour sorption (DVS); format: physicochemical
Method: (§1) Approximately, 10-20 mg of sample were placed into a mesh vapour sorption balance pan and loaded into a DVS Intrinsic dynamic vapour sorption balance by Surface Measurement Systems. The sample was subjected to a ramping profile from 40-90% relative humidity (RH) at 10% increments, maintaining the sample at each step until a stable weight had been achieved (dm/dt 0.004%, minimum step length 30 minutes, maximum step length 500 minutes) at 25° C. After completion of the sorption cycle, the sample was dried using the same procedure to 0% RH and then a second sorption cycle back to 40% RH. Two cycles were performed. The weight change during the sorption/desorption cycles were plotted, allowing for the hygroscopic nature of the sample to be determined. XRPD analysis was then carried out on any solid retained.
as §1, with “Approximately, 10” for “Approximately, 10-20”, “sample was” for “sample were”, “a DVS-1” for “a DVS Intrinsic”

[8] = Storage stability of Compound 3 forms (80° C., 40° C./75% RH, 25° C./60% RH, ambient); format: physicochemical; conditions: 1 week
Method: No changes by XRPD or HPLC purity were observed when the material was stored at 40° C./75% RH, 80° C. or under ambient conditions.

[9] = Solubility in selected media (FaSSIF, FeSSIF, FaSSGF, pH 4 citrate, pH 6.8 phosphate); format: physicochemical
Method: Solubility within selected media (FaSSIF, FeSSIF, FaSSGF, pH 4 citrate and pH 6.8 phosphate) was measured to be <0.01 mg/mL.
The pH 4 citrate buffer was prepared by dissolving sodium citrate (987 mg) and citric acid (1.28 g) in 100 mL H2O. The pH was adjusted to 4. The pH 6.8 phosphate buffer was prepared by dissolving dibasic sodium phosphate dihydrate (873 mg) and monobasic sodium phosphate monohydrate (708 mg) in 100 mL H2O. The pH was adjusted to 6.8. The FaSSIF media was prepared with sodium hydroxide (108 mg), sodium chloride (1.55 g) and monobasic sodium phosphate dihydrate (1.12 g) in H2O (0.25 L) and the pH adjusted to 6.5. FaSSIF/FeSSIF/FaSSGF (0.56 g) was dissolved in the buffer and mixed until opalescent. The FeSSIF media was prepared by dissolving sodium hydroxide (1.01 g), sodium chloride (2.96 g) and glacial acetic acid (2.97 g) in H2O (0.25 L) and the pH adjusted to pH 5. FaSSIF/FeSSIF/FaSSGF (2.81 g) was dissolved in the buffer and thoroughly mixed. The FaSSGF media was prepared by dissolving FaSSIF/FeSSIF/FaSSGF (0.06 g) in a solution of sodium chloride (2.00 g) dissolved in H2O (1 L) and mixing thoroughly.

[10] = Drying of isolated samples at 50° C. for approximately 24 hours; format: physicochemical
Method: Samples produced from thermal cycling, cooling and evaporation experiments were dried at 50° C. for approximately 24 hours to assess any de-solvation/dehydration. From temperature cycling experiments, 3 samples converted upon drying: • Acetonitrile sample converted from Form J to amorphous; • 40% Ethanol/60% Water (% v/v) converted from Form N to Form P; and • Methanol sample converted from Form O to amorphous.

[11] = Thermogravimetric/differential thermal analysis (TG/DTA); format: physicochemical
Method: Approximately, 5 mg of material was weighed into an open aluminium pan and loaded into a simultaneous thermogravimetric/differential thermal analyzer (TG/DTA) and held at room temperature. The sample was then heated at a rate of 10° C./min from 20° C. to 400° C. during which time the change in sample weight occurred was recorded along with any differential thermal events (DTA). Nitrogen was used as the purge gas at a flow rate of 300 cm^3/min.

[12] = Differential scanning calorimetry (DSC); format: physicochemical
Method: DSC was performed using a TA Instruments 2920 or Q2000 differential scanning calorimeter. Temperature calibration was performed using NIST-traceable indium metal. The sample was placed into an aluminum DSC pan, covered with a lid, and the weight was accurately recorded. A weighed aluminum pan configured as the sample pan was placed on the reference side of the cell. The method code on the thermogram is an abbreviation for the start and end temperature as well as the heating rate; e.g., -30-250-10 means “from −30° C. to 250° C., at 10° C./min”. The following table summarizes the abbreviations used in each image for pan configurations: […]

[13] = Variable temperature XRPD (VT-XRPD); format: physicochemical; conditions: Table 27A
Method: VT-XRPD analysis was carried out on a Philips X'Pert Pro Multipurpose diffractometer equipped with a temperature chamber. The samples were scanned between 4 and 35.99°2θ using Cu K radiation (α1λ=1.54060 Å; α2=1.54443 Å; β=1.39225 Å; α1: α2 ratio=0.5) running in Bragg-Brentano geometry (step size 0.008°2θ) using 40 kV/40 mA generator settings.

[14] = Polarized light microscopy (PLM); format: physicochemical; conditions: Table 27A
Method: The presence of crystallinity (birefringence) was determined using an Olympus BX50 microscope, equipped with cross-polarizing lenses and a Motic camera. Images were captured using Motic Images Plus 2.0. All images were recorded using the 20×objective, unless otherwise stated. All samples were prepared using silicone oil and covered with a cover slip before PLM analysis was completed.

SMILES: CC(=O)c1nn(CC(=O)N2[C@H](C(=O)Nc3nc(Br)ccc3C)C[C@@]3(C)C[C@@H]23)c2c(C)cc(-c3cnc(C)nc3)cc12 [Compound 2]
- Thermal Stability by TGA (Thermal stability by TGA): ~0.2% wt. loss to 150 °C
- Solid State Stress Testing: Chemical Stability ([1]; 70° C./75% RH): No degradation
- Solid State Stress Testing: Humidity ([1]; 70° C./75% RH): Amorphous crystallizes out
- Solid State Stress Testing: Photostability ([1]; exposure to UV visible): No light sensitivity
- Solution stress testing: Acid degradation ([2]; 0.1N HCl): Degradation observed
- Acid degradation, extent ([2]; 0.1N HCl, 7-days at RT): (~8% 7-days at RT)
- Solution stress testing: Base degradation ([2]; 0.1N NaOH): Degradation observed
- Base degradation, extent ([2]; 0.1N NaOH, 2-days at RT): (~18% 2-days at RT)
- Solution stress testing: Oxidative degradation ([2]; H2O2): Not susceptible to oxidation
- solubility ([3]; FaSSIF, read-out: FaSSIF solubility): 2.6 µg/mL (≈ 4.22 µM)
- solubility ([3]; FeSSIF, read-out: FeSSIF solubility): 4.7 µg/mL (≈ 7.62 µM)
- efflux ratio [4]: 1.2
- Caco2: A-B (Caco2): Caco2: A-B ~26 × 10^−6 cm/s
- BCS class [5]: BCS II compound
- Dose Number ([5]; for 125 mg): Dose Number (for 125 mg): 106-190
- Assay ([6]; 5° C./NR RH, 1-month): 97.3%
- Total Impurities ([6]; 5° C./NR RH, 1-month): 1.9%
- Water Content ([6]; 5° C./NR RH, 1-month): 2.5%
- XRPD ([6]; 5° C./NR RH, 1-month): amorphous
- Assay ([6]; 5° C./NR RH, 3-month): 97.5%
- Total Impurities ([6]; 5° C./NR RH, 3-month): 1.7%
- Water Content ([6]; 5° C./NR RH, 3-month): 2.3%
- Assay ([6]; 5° C./NR RH, Time Zero): 97.2%
- Total Impurities ([6]; 5° C./NR RH, Time Zero): 1.9%
- Water Content ([6]; 5° C./NR RH, Time Zero): 1.9%
- XRPD ([6]; 5° C./NR RH, Time Zero): amorphous
- Assay ([6]; 25° C./60% RH, 1-month): 97.0%
- Total Impurities ([6]; 25° C./60% RH, 1-month): 1.9%
- Water Content ([6]; 25° C./60% RH, 1-month): 3.0%
- XRPD ([6]; 25° C./60% RH, 1-month): amorphous
- Assay ([6]; 25° C./60% RH, 2 weeks): 99.5%
- Total Impurities ([6]; 25° C./60% RH, 2 weeks): 1.9%
- Water Content ([6]; 25° C./60% RH, 2 weeks): 2.7%%
- Assay ([6]; 25° C./60% RH, 3-month): 97.8%
- Total Impurities ([6]; 25° C./60% RH, 3-month): 1.9%
- Water Content ([6]; 25° C./60% RH, 3-month): 3.1%
- Assay ([6]; 25° C./60% RH, Time Zero): 97.2%
- Total Impurities ([6]; 25° C./60% RH, Time Zero): 1.9%
- Water Content ([6]; 25° C./60% RH, Time Zero): 1.9%
- XRPD ([6]; 25° C./60% RH, Time Zero): amorphous
- Assay ([6]; 40° C./75% RH, 1-month): 97.5%
- Total Impurities ([6]; 40° C./75% RH, 1-month): 1.9%
- Water Content ([6]; 40° C./75% RH, 1-month): 4.0%
- XRPD ([6]; 40° C./75% RH, 1-month): amorphous
- Assay ([6]; 40° C./75% RH, 2 weeks): 99.8%
- Total Impurities ([6]; 40° C./75% RH, 2 weeks): 1.9%
- Water Content ([6]; 40° C./75% RH, 2 weeks): 3.5%
- Assay ([6]; 40° C./75% RH, 3-month): 96.4%
- Total Impurities ([6]; 40° C./75% RH, 3-month): 1.6%
- Water Content ([6]; 40° C./75% RH, 3-month): 3.8%
- Assay ([6]; 40° C./75% RH, Time Zero): 97.2%
- Total Impurities ([6]; 40° C./75% RH, Time Zero): 1.9%
- Water Content ([6]; 40° C./75% RH, Time Zero): 1.9%
- XRPD ([6]; 40° C./75% RH, Time Zero): amorphous

SMILES: CC(=O)c1nn(CC(=O)N2[C@H](C(=O)Nc3nc(Br)ccc3C)C[C@@]3(C)C[C@@H]23)c2ccc(-c3cnc(C)nc3)cc12 [Form J]
- DVS analysis: hygroscopic nature ([7]; 25° C.): hygroscopic
- DVS: hygroscopicity ([7]; Table 27A): Hygroscopic first
- XRPD post DVS ([7]; Table 27A): Form B
- Post-DVS XRPD analysis ([7]; after DVS): pattern D
- DVS uptake ([7]; first sorption cycle): 6.9 wt %
- DVS uptake as equivalents of water ([7]; first sorption cycle): 2.5 equiv. water
- DVS uptake ([7]; second sorption cycle): 5.2 wt %
- DVS uptake as equivalents of water ([7]; second sorption cycle): 1.8 equiv. water
- 1 week stability: 40° C./75% RH HPLC (uncapped) [8]: 99.8% (by relative area)
- 1 week stability: 80° C. HPLC (capped) [8]: 99.9% (by relative area)
- 1 week stability: 80° C. XRPD (capped) [8]: Pattern D
- 1 week stability: Ambient conditions HPLC (capped) [8]: 99.9% (by relative area)
- solubility ([9]; FaSSGF): <0.01 mg/mL
- solubility ([9]; FaSSIF): <0.01 mg/mL
- solubility ([9]; FeSSIF): <0.01 mg/mL
- Form after drying (de-solvation/dehydration) [10]: amorphous
- Onset Temp: Solvent loss ([11]; Table 22B): loss 129.3, ° C.
- Onset Temp: melting transition ([11]; Table 22B): 200.0 °C
- TG/DTA: Melting ([11]; Table 27A): melting 206.7 °C
- TG/DTA: Solvent loss ([11]; Table 27A): Solvent loss 138.5° C.,
- Mass loss within the TG trace ([11]; up to 150° C.): 2.2 wt %
- Thermal events from SSCI report: Exothermic base line shifts ([12]; SSCI report): ~134° C., apparent
- Thermal events from SSCI report: apparent melt onset ([12]; SSCI report): melt onset 83 °C
- DSC: Melting ([12]; onset, Table 27A): melting 202.9 °C
- DSC: Solvent loss ([12]; onset, Table 27A): Solvent loss 138.5 °C
- DSC: Melting (peak) ([12]; peak, Table 27A): (peak 213.3° C.)
- DSC: Solvent loss (peak) ([12]; peak, Table 27A): (peak 152.4° C.)
- VT-XRPD: Form J de-solvated to Pattern G [13]: Pattern G (120° C.)
- PLM [14]: Birefringent rods
